According to patent publication US5840918A, “Isoprenyl transferase inhibitors” (Eisai Co., Ltd., priority 1997, dated 1998):

Key:
FTase = target: T1, FTase (Bos taurus, UniProt P29702+P49355); test: Inhibition of FTase-mediated prenylation (in vitro prenylation assay); type: biochemical; details: Table 1; partially purified FTase, 3 μM recombinant H-ras, 440 nM [3H]FPP, 15 min 37° C
T1 construct: bovine brain by inference from the cited Moores et al. 1991
From the text: (§1) Nanomolar concentrations of the indicated compounds were sufficient to inhibit farnesylation of ras proteins in vitro. For screening candidate compounds useful for the treatment of ras-associated tumors, the FTase assay is preferred. […] Substitutions which confer GGTase specificity as taught herein also produced potent inhibitors of GGTase.

GGTase = test: Inhibition of GGTase-mediated prenylation (in vitro prenylation assay); type: biochemical; details: Table 1; partially purified GGTase, 5 μM recombinant H-ras (61L, CAIL), 1 μM [3H] geranylgeranyl diphosphate
From the text: as §1

[1] = tested on: H-ras farnesylation in H-ras (61L) transformed NIH3T3 fibroblasts; test: Inhibition of H-ras farnesylation in whole cells (Western blot); type: cell-based, mouse
Method: The ability of compounds of the invention to inhibit H-ras farnesylation and rap1 geranylgeranylation in whole cells was determined. H-ras (61L) transformed NIH3T3 fibroblasts were generously provided by C. Der, Univ. N. Carolina. These fibroblasts were treated for 24 h with 50 μM lovastatin (control) or the indicated concentrations of inhibitor. The cells were lysed in 1% NP-40, 5 mM Tris-HCl (pH 8.0), 5 mM EDTA, 0.1 mM N-tosyl-L-phenylalanine chloromethyl ketone, 0.1 mM N-tosyl-L-lysine chloromethyl ketone, and 1 mM phenylmethylsulfonyl fluoride. The lysate was centrifuged (15000×g, 5 min.) and the supernatant was used as a cell extract. […] After transfer to IMMOBILON P™ membrane (Millipore), the blots were probed with LA069 mouse monoclonal antibody to H-ras (Quality Biotech), or rabbit polyclonal antibody to rap1/Krev (Santa Cruz Biotechnology). All Western blots were developed using ECL chemiluminescent reagents (Amersham).

[2] = Mus musculus, NIH3T3, 24 h, Table 2

Compound	IC50 (FTase)	IC50 (GGTase)	IC50 [1, 2]	IC50 ([1]; Table 2, 24 h)	IC50 ([1]; Mus musculus, NIH3T3, Table 2, 24 h)
COC(=O)[C@H](CCSC)N(C)C(=O)C(/C=C\[C@@H](/C=C/C(N)CS)C(C)C)Cc1ccccc1 (stereo partly drawn) [PD451]	0.146 µM	1.11 µM	0.4 µM		
CC[C@H](C)[C@H](NC[C@@H](/C=C/C(N)CS)C(C)C)C(=O)N[C@@H](CCSC)C(=O)OC (stereo partly drawn) [PA141]	0.095 µM	0.88 µM	0.017 µM		
CSCCC(NC(=O)C(/C=C\[C@@H](/C=C/C1CSC(C)(C)N1)C(C)C)Cc1ccccc1)C(=O)O (stereo partly drawn) [PD321]	0.025 µM	0.014 µM	0.1 to 1 µM		
COC(=O)[C@H](CCSC)NC(=O)C(NC[C@@H](/C=C/C(N)CS)C(C)C)C(C)C (stereo partly drawn) [PA101]	0.17 µM	1.3 µM	0.24 µM		
CC(C)C(/C=C/[C@@H](/C=C/C(N)CS)C(C)C)C(=O)N[C@H]1CCOC1=O (stereo partly drawn) [PD092]	0.052 µM	3.2 µM	0.78 µM		
CSCC[C@H](NC(=O)C(/C=C/[C@@H](/C=C/C(N)CS)C(C)(C)C)C(C)C)C(=O)O (stereo partly drawn) [PD142]	0.042 µM	2.12 µM	7.3 µM		
CSCCC(NC(=O)C(Cc1ccccc1)OCC(C=CC(N)CSSCC(N)C=CC(COC(Cc1ccccc1)C(=O)NC(CCSC)C(=O)O)C(C)C)C(C)C)C(=O)O (stereo not drawn) [PE041]	0.027 µM	0.16 µM	0.19 µM		
CSCC[C@H](NC(=O)C(/C=C/C(/C=C/CCS)C(C)C)Cc1ccccc1)C(=O)O (single isomer, unassigned) [PD112]	2.22 µM	8.05 µM	193 µM		
COC(=O)[C@H](CCS(C)(=O)=O)NC(=O)C(Cc1cccs1)NC[C@@H](/C=C/C(N)CS)C(C)C (stereo partly drawn) [PA011]	0.14 µM	11 µM	0.1 µM		
COC(=O)[C@H](CCS(C)(=O)=O)NC(=O)C(Cc1cccs1)N(C)C[C@@H](/C=C/C(N)CS)C(C)C (stereo partly drawn) [PA021]	0.028 µM	7.1 µM	0.08 µM		
C[C@H](/C=C/C(N)CS)/C=C/C(Cc1ccccc1)C(=O)N[C@@H](CCC(N)=O)C(=O)O (stereo partly drawn) [PD062]	0.2 µM	1.76 µM		21 µM	
CSCC[C@H](NC(=O)C(/C=C/[C@@H](/C=C/C(N)CS)C(C)C)C(C)C)C(=O)N1CCOCC1 (stereo partly drawn) [PD032]	0.45 µM	2.86 µM	1.95 µM		
CSCC[C@H](NC(=O)C(Cc1cccs1)NC[C@@H](/C=C/C(N)CS)C(C)C)C(=O)O (stereo partly drawn) [PA031]	0.0036 µM	0.215 µM	1 µM		
COC(=O)[C@H](CCSC)NC(=O)C(/C=C/[C@@H](/C=C/C(N)CS)C(C)C)C(C)C (stereo partly drawn) [PD411]	0.56 µM	8.4 µM	0.22 µM		
CSCC[C@H](NC(=O)C(NC[C@@H](/C=C/C(N)CS)C(C)C)C(C)C)C(=O)O (stereo partly drawn) [PA061]	0.0021 µM	0.048 µM	0.58 µM		
CC(C)[C@H](/C=C/C(N)CS)CNC(Cc1cccs1)C(=O)N[C@@H](CCS(C)(=O)=O)C(=O)O (stereo partly drawn) [PA111]	0.013 µM	0.27 µM			0.13 µM
CSCC[C@H](NC(=O)C(Cc1ccccc1)OC[C@@H](/C=C/C(N)CS)C(C)C)C(=O)O (stereo partly drawn) [PE021]	0.009 µM	0.092 µM	0.28 µM		
CC(C)[C@H](/C=C/C(N)CS)CN(C)C(Cc1cccs1)C(=O)N[C@@H](CCS(C)(=O)=O)C(=O)O (stereo partly drawn) [PA121]	0.015 µM	0.38 µM	0.58 µM		
CSCC[C@H](NC(=O)C(/C=C/[C@H](C)/C=C/C(N)CS)Cc1ccccc1)C(=O)O (stereo partly drawn) [PD441]	0.026 µM	0.17 µM	4.2 µM		
CSCC[C@H](NC(=O)C(/C=C/[C@@H](/C=C/C(N)CS)C(C)(C)C)C(C)C)C(=O)O (single isomer, unassigned) [PD152]	0.023 µM	0.044 µM	0.32 µM		
CC(C)[C@@H](/C=C\C(Cc1ccccc1)C(=O)NC(CCC(N)=O)C(=O)O)/C=C/C(N)CS (stereo partly drawn) [PD301]	0.002 µM	0.0037 µM	4.5 µM		
COC(=O)[C@H](CCS(C)(=O)=O)NC(=O)C(Cc1ccccc1)OC[C@@H](/C=C/C(N)CS)C(C)C (stereo partly drawn) [PE061]	0.06 µM	6.3 µM	1.1 µM		
CC(C)C(/C=C/[C@@H](/C=C/C(N)CS)C(C)C)C(=O)N[C@@H](CO)C(=O)O (stereo partly drawn) [PD202]	0.017 µM	1.12 µM	1.95 µM		
CSCC[C@H](NC(=O)C(/C=C/C(/C=C/CCS)C(C)C)Cc1ccccc1)C(=O)O (stereo partly drawn) [PD162]	0.26 µM	4.57 µM	326 µM		

Further lines, with some results ahead:

IC50 (FTase)	IC50 (GGTase)	Compound	IC50 [1, 2]	IC50 ([1]; Table 2, 24 h)	IC50 ([1]; Mus musculus, NIH3T3, Table 2, 24 h)
0.215 µM	3.5 µM	COC(=O)[C@H](Cc1cccs1)NC(=O)c1cc(C/C=C/C(N)CS)ccc1-c1ccsc1 (stereo partly drawn) [PM092]	2.7 µM		
0.093 µM	6.59 µM	COC(=O)[C@H](CCS(C)(=O)=O)NC(=O)c1cc(CCC[C@@H](N)CS)ccc1-c1ccsc1 [PM032]	19.5 µM		
0.024 µM	0.246 µM	CSCC[C@H](NC(=O)c1cc(C/C=C/C(N)CS)ccc1-c1cccc(C(F)(F)F)c1)C(=O)O (stereo partly drawn) [PM111]	> 100 µM		
0.0012 µM	1.66 µM	CSCC[C@H](NC(=O)c1cc(C/C=C/C(N)CS)ccc1C)C(=O)O (stereo partly drawn) [PM112]	4 µM		
0.03 µM	0.148 µM	CSCC[C@H](NC(=O)c1cc(C/C=C/C(N)CS)ccc1-c1cccc2ccccc12)C(=O)O (stereo partly drawn) [PM082]	21 µM		
0.115 µM	1.4 µM	COC(=O)[C@H](CCSC)NCc1cc(C/C=C/[C@@H](N)CS)ccc1-c1ccccc1 [PM031]	25 µM		
0.28 µM	3.79 µM	COC(=O)[C@H](CCSC)NC(=O)c1cc(C/C=C/C(N)CS)ccc1-c1ccsc1 (stereo partly drawn) [PM192]	0.23 µM		
0.017 µM	0.075 µM	CSCC[C@H](NC(=O)c1cc(C/C=C/C(N)CS)ccc1-c1ccsc1)C(=O)O (stereo partly drawn) [PM021]	2.1 µM		
0.119 µM	1.63 µM	COC(=O)[C@H](CCSC)NC(=O)c1cc(CCCC(N)CS)ccc1-c1ccsc1 (stereo partly drawn) [PM132]	1.6 µM		
0.0009 µM	2.14 µM	CS(=O)(=O)CC[C@H](NC(=O)c1cc(C/C=C/C(N)CS)ccc1-c1ccccc1)C(=O)O (stereo partly drawn) [PM161]	18.9 µM		
0.0001 µM	0.016 µM	CSCCC(NC(=O)c1cc(CC=CC(N)CSSCC(N)C=CCc2ccc(-c3ccccc3)c(C(=O)NC(CCSC)C(=O)O)c2)ccc1-c1ccccc1)C(=O)O (stereo not drawn) [PM141]	9.7 µM		
0.00085 µM	1.55 µM	NC(=O)CC[C@H](NC(=O)c1cc(C/C=C/C(N)CS)ccc1-c1ccccc1)C(=O)O (stereo partly drawn) [PM051]	23.5 µM		
0.008 µM	0.072 µM	COc1ccccc1-c1ccc(C/C=C/C(N)CS)cc1C(=O)N[C@@H](CCSC)C(=O)O (stereo partly drawn) [PM142]	1.1 µM		
0.003 µM	2.2 µM	COc1ccc(C/C=C/C(N)CS)cc1C(=O)N[C@@H](CCSC)C(=O)O (stereo partly drawn) [PM122]	23.4 µM		
0.016 µM	7.42 µM	COC(=O)[C@H](CCS(C)(=O)=O)NC(=O)c1cc(C/C=C/C(N)CS)ccc1-c1ccsc1 (stereo partly drawn) [PM202]	1.2 µM		
0.16 µM	3.96 µM	CC(C)COC(=O)[C@H](CCS(C)(=O)=O)NC(=O)c1cc(C/C=C/[C@@H](N)CS)ccc1-c1ccsc1 [PM072]	2.4 µM		
0.18 µM	1.4 µM	COC(=O)[C@H](CCSC)NC(=O)c1cc(C/C=C/[C@@H](N)CS)ccc1-c1ccccc1 [PM041]	2.3 µM		
0.038 µM	0.27 µM	NC(/C=C/Cc1ccc(-c2ccsc2)c(C(=O)N[C@@H](Cc2cccs2)C(=O)O)c1)CS (stereo partly drawn) [PM152]	40.3 µM		
0.0018 µM	0.12 µM	CSCC[C@H](NC(=O)c1cc(CCCC(N)CS)ccc1-c1ccsc1)C(=O)O (stereo partly drawn) [PM162]	13.1 µM		
